For test [1], the system named is human basophils. Briefly: Histamine release assay, anti-IgE induced, human basophils. The format is cell-based. Particulars: 10 minutes pre-incubation, read-out: maximal inhibitory effect on anti-IgE induced histamine release. As for the experimental part:
Human basophils were isolated from whole blood using ficoll paque (D=1.077). Briefly, heparinized whole blood was diluted 1:3 with PBS (w/o Ca and Mg), layered on the ficoll paque solution, and centrifuged for 30 min at 400×g. Low-density particles such as lymphocytes, monocytes, basophils, and platelets were recovered from the interface between the plasma and ficoll solution. The cell suspension from the interface was centrifuged twice at 200×g for 10 min for removal of thrombocytes from the basophil fraction. The number of basophils in the cell suspension was determined by Toluidin blue staining. The yield of basophils was approximately 2%. These pre-purified basophils were used for the histamine release assay. For the cytokine release assays, basophils were further purified using the “Basophil Isolation Kit” for depletion of non-basophils from the interface cell suspension. […] The quantification of histamine levels was achieved using an automated histamine-analyser system (Firm Borgwelt Technik). The wavelength of the excitation was 355-360 nm and the emission wavelength of fluorescence measurement was 450-460 nm. The intensity of fluorescence was directly proportional to the concentration of histamine in the samples. The amount of released histamine was calculated according to the following formula: net histamine release=(release−blank)×(100/complete). […]

The subject of test [2] is C57 mouse mast cell line transfected with the alpha chain of the human high affinity IgE receptor. Briefly: Histamine release assay, anti-human-IgE induced, C57 cells. In kind it is cell-based. Particulars: anti-human-IgE stimulation; 60 min pre-incubation. How it is done:
Stock solution of miltefosine (5 mM) was prepared in DMSO and stored at −20° C. For preparation of the working concentration (2 mM), the stock solution was diluted with PAG-CM (PAG-CM=PIPES Albumin Glucose with Calcium und Magnesium). All other dilutions of miltefosine were prepared with 40% DMSO in PAG-CM buffer. The quantification of histamine levels was achieved using an automated histamine-analyser system (Firm Borgwelt Technik). The wavelength of the excitation was 355-360 nm and the emission wavelength of fluorescence measurement was 450-460 nm. The intensity of fluorescence was directly proportional to the concentration of histamine in the samples. The amount of released histamine was calculated according to the following formula: net histamine release=(release−blank)×(100/complete). “Release”, in this context, was defined as the supernatant of stimulated cells, e.g. by anti-IgE, whereas supernatants of non stimulated cells, i.e. spontaneous release, was termed “blank”. “Complete” stands for the total histamine content of mast cells (after lysing with perchloric acid). The histamine release assays were performed in the PAG-CM buffer system. The numbers of mast cells or basophils in each sample used for histamine release assays was approximately 1×10^4 cells. For stimulation, cells were exposed to anti-IgE, Substance P, Ca-ionophore, or C5a. […]

Each structure is given as a SMILES string.

Consider `CCCCCCCCCCCCCCCCOP(=O)([O-])OCC[N+](C)(C)C` [Compound 3, 1-hexadecylphosphoryl-choline], for which the inhibition at 25 µM in test [1] came to 10%. Further, the “maximal inhibition of histamine release” value in test [2] worked out at 40%.

(Values after patent publication US8394785B2, “Methods for the treatment and amelioration of urticaria” (Jado Technologies GmbH, priority 2005, dated 2013).)
